Drawing on patent publication US11110082B2, “Tyrosine kinase inhibitors” (Rigel Pharmaceuticals, Inc., priority 2016, dated 2021), this text covers EC50 for 23 compounds.

pEC50: −log10 of the molar value.

The assay concerns the target T1, MerTK (Homo sapiens, UniProt Q12866).
T1 construct: Seed HUVECs (10K cells/well) in EBM-2 complete media; host or cells: HUVEC (primary human umbilical vein endothelial cells)
T1 sequence (Q12866 21-999): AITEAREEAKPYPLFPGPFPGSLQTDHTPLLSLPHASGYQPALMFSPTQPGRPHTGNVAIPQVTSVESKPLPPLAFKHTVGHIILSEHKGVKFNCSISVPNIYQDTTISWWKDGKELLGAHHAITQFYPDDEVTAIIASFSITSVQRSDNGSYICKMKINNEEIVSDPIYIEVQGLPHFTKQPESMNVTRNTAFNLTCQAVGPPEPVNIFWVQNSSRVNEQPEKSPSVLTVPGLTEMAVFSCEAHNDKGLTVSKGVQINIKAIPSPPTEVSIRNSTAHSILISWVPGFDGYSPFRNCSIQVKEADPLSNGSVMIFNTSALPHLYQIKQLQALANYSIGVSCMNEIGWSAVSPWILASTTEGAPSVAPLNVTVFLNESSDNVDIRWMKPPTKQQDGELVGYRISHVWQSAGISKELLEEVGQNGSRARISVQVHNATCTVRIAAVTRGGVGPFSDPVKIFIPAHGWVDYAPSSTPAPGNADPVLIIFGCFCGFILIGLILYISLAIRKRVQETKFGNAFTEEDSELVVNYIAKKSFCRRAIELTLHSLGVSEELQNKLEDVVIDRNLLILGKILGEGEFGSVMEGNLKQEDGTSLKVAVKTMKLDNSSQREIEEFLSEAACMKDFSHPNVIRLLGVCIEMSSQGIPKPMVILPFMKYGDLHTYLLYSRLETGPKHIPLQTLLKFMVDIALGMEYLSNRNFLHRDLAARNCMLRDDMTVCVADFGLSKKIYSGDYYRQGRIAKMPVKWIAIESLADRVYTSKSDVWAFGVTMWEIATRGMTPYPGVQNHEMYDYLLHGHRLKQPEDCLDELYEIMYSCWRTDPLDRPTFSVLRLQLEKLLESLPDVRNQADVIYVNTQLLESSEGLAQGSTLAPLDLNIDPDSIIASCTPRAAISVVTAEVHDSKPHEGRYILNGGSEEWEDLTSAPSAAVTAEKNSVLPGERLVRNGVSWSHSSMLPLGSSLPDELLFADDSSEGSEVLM
Put plainly: PAKT HTRF-HUVEC assay (pAkt Ser473 HTRF after anti-human MerTK-XL stimulation). Type of assay: cell-based. The settings on record: HUVEC cells, 1 hour compound, stimulated with anti-human MerTK-XL 1 ug/mL for 10 minutes, read-out: inhibition of MerTK. As to the method: Example 4: PAKT HTRF-HUVEC Assay Phospho Akt (Ser473) Assay kit-10,000 tests (Cisbio US, 64[…]) HUVEC cells (Lonza, CC-2519) Anti-human MerTK antibody (Clone 125518) (R&D Systems, MAB8912) Method Seed HUVECs (10K cells/well) in EBM-2 complete media (EBM-2 basal medium plus EGM-2 BulletKit supplements) overnight at 37° C., 5% CO2 in Costar 96-well white clear-bottom plates. Remove culture media and starve cells for 3-4 hours in 50 μL/well EBM-2 basal medium. Perform serial dilution of compounds in DMSO from 2.5 mM in 4-fold dilutions, and then dilute 1:125 in EBM-2 basal media. Mix 50 μL/well 2x compounds with 50 μL/well HUVECs in duplicate in Costar 96-well white clear-bottom plates. Incubate plates for 1 hour at 37° C., 5% CO2. Cross-link anti-human MerTK antibody to Biotin-SP-conjugated anti-mouse IgG antibody (1:1) to give final concentrations of 5 ug/mL of anti-human MerTK-XL. Stimulate HUVECs with 25 μL/well 5x anti-human MerTK-XL to give final concentrations of 1 ug/mL for 10 minutes at 37° C., 5% CO2. Completely remove media and lyse HUVECs with 40 uL/WELL per well of Cisbio HTRF 1× lysis buffer. Performed pAkt(Ser473) HTRF assay in ProxiPlate-384 Plus, white 384-shallow well microplate according to the vendor protocol and read plates with a SpectralMax Paradigm plate reader. Enter the HTRF values into Athena (Rigel) for curve fitting, EC50 calculation, and database storage.
(In general: Time-resolved FRET reads energy transfer from a long-lived donor to a nearby acceptor.)

Consider `O=c1c2cc(N3CC4(COC4)C3)ccc2c2cnc(NC3CC(F)C3)nc2n1[C@H]1CC[C@H](O)CC1` (stereo partly drawn) [Compound 75, trans-3-((3-Fluorocyclobutyl)amino)-5-(4-hydroxycyclohexyl)-8-(2-oxa-6-azaspiro[3.3]heptan-6-yl)pyrimido[4,5-c]isoquinolin-6(5H)-one], for which the pEC50 is 5.97.

With `CN1CCN(Cc2ccc3c(c2)c(=O)n(C2CCN(C(=O)OC(C)(C)C)CC2)c2nc(NCC4CC4)ncc32)CC1` [Compound 188], the pEC50 was 4.95. As for `CN1CCN(Cc2ccc3c(c2)c(=O)n([C@H]2CC[C@H](O)CC2)c2nc(NC4CC(F)(F)C4)ncc32)CC1` [Compound 12, trans-3-((3,3-Difluorocyclobutyl)amino)-5-(4-hydroxycyclohexyl)-8-((4-methylpiperazin-1-yl)methyl)pyrimido[4,5-c]isoquinolin-6(5H)-one], the figure is 6.93; as for `CCCCNc1ncc2c3ccc(CN4CCN(C)CC4)cc3c(=O)n([C@H]3CC[C@H](C(=O)NCC4CC4)CC3)c2n1` [Compound 141, trans-4-(3-(Butylamino)-8-((4-methylpiperazin-1-yl)methyl)-6-oxopyrimido[4,5-c]isoquinolin-5(6H)-yl)-N-(cyclopropylmethyl)cyclohexane-1-carboxamide], 6.73; as for `CCC1(CNc2ncc3c4ccc(CN5CCOCC5)cc4c(=O)n([C@H]4CC[C@H](O)CC4)c3n2)CC1` [Compound 23], 5.93. Turning to `CN1CCC(Nc2ccc3c(c2)c(=O)n([C@H]2CC[C@H](O)CC2)c2nc(NCC4CC4)ncc32)CC1` [Compound 189, trans-3-((Cyclopropylmethyl)amino)-5-(4-hydroxycyclohexyl)-8-((1-methylpiperidin-4-yl)amino)pyrimido[4,5-c]isoquinolin-6(5H)-one], the pEC50 was 7.12. On to `C[C@@H]1CN(c2ccc3c(c2)c(=O)n([C@H]2CC[C@H](O)CC2)c2nc(NCC4CC4)ncc32)CCN1C` [Compound 106, trans-3-((Cyclopropylmethyl)amino)-8-((R)-3,4-dimethylpiperazin-1-yl)-5-(4-hydroxycyclohexyl)pyrimido [4,5-c]isoquinolin-6(5H)-one], for which the pEC50 was 7.15. As for `CCC(F)(F)CNc1ncc2c3ccc(N4CCN(C)CC4)cc3c(=O)n([C@H]3CC[C@H](O)CC3)c2n1` [Compound 93, trans-3-((2,2-Difluorobutyl)amino)-5-(4-hydroxycyclohexyl)-8-(4-methylpiperazin-1-yl)pyrimido[4,5-c]isoquinolin-6(5H)-one], the figure is 6.45. The result for `O=c1c2cc(CN3CCn4ncnc4C3)ccc2c2cnc(NCC3CC3)nc2n1[C@H]1CC[C@H](O)CC1` [Compound 39, trans-3-((Cyclopropylmethyl)amino)-8-((5,6-dihydro-[1,2,4]triazolo[1,5-a]pyrazin-7(8H)-yl)methyl)-5-(4-hydroxycyclohexyl)pyrimido [4,5-c]isoquinolin-6(5H)-one] reads 7.19; that for `CCCCNc1ncc2c3ccc(CN4CCN(C)CC4)cc3c(=O)n([C@H]3CC[C@H](NC(=N)N)C3)c2n1` [Compound 239, 1-((1S,3 S)-3-(3-(butylamino)-8-((4-methylpiperazin-1-yl)methyl)-6-oxopyrimido[4,5-c]isoquinolin-5(6H)-yl)cyclopentyl)guanidine], 6.02; that for `CCCCNc1ncc2c3ccc(CN4CCN(C)CC4)cc3c(=O)n([C@H]3CCC[C@H](O)CC3)c2n1` [Compound 229, 3-(butylamino)-5-((1S,4S)-4-hydroxycycloheptyl)-8-((4-methylpiperazin-1-yl)methyl)pyrimido[4,5-c]isoquinolin-6(5H)-one], 7.14.

On to `CN1CCN(Cc2ccc3c(c2)c(=O)n([C@H]2CC[C@H](NC(=O)OC(C)(C)C)CC2)c2nc(NCC4CC4)ncc32)CC1` [Compound 184, trans-tert-Butyl (4-(3-((cyclopropylmethyl)amino)-8-((4-methylpiperazin-1-yl)methyl)-6-oxopyrimido[4,5-c]isoquinolin-5(6H)-yl)cyclohexyl)carbamate], for which the pEC50 was 5.29.

`O=c1c2cc(N3CCC(N4CCCC4)CC3)ccc2c2cnc(NCC3CC3)nc2n1[C@H]1CC[C@H](O)CC1` [Compound 99, trans-3-((Cyclopropylmethyl)amino)-5-(4-hydroxycyclohexyl)-8-(4-(pyrrolidin-1-yl)piperidin-1-yl)pyrimido[4,5-c]isoquinolin-6(5H)-one]: the pEC50 is 7.02. For the compound `O=c1c2cc(CN3CCSCC3)ccc2c2cnc(NCC3CC3)nc2n1[C@H]1CC[C@H](O)CC1` [Compound 170], the pEC50 was 7.44. As for `CCCCNc1ncc2c3ccc(N4CCN(C)CC4)cc3c(=O)n([C@H]3CC[C@@](C)(O)CC3)c2n1` [Compound 89, cis-3-(Butylamino)-5-(4-hydroxy-4-methylcyclohexyl)-8-(4-methylpiperazin-1-yl)pyrimido[4,5-c]isoquinolin-6(5H)-one], the figure is 6.82; as for `CCC1(CNc2ncc3c4ccc(CN5CCN(C)CC5)cc4c(=O)n([C@H]4CC[C@H](O)CC4)c3n2)CCC1` [Compound 18, trans-3-(((1-Ethylcyclobutyl)methyl)amino)-5-(4-hydroxycyclohexyl)-8-((4-methylpiperazin-1-yl)methyl)pyrimido[4,5-c]isoquinolin-6(5H)-one], 6.56.

For `O=c1c2cc(CN3CCN4CCC3CC4)ccc2c2cnc(NCC3CC3)nc2n1[C@H]1CC[C@H](O)CC1` [Compound 179], the pEC50 was 6.94. As for `CCCCNc1ncc2c3ccc(CN4CCN(C)CC4)cc3c(=O)n([C@H]3CC[C@H](NCCO)C3)c2n1` [Compound 238, 3-(butylamino)-5-((1S,3S)-3-((2-hydroxyethyl)amino)cyclopentyl)-8-((4-methylpiperazin-1-yl)methyl)pyrimido[4,5-c]isoquinolin-6(5H)-one], the figure is 6.80; as for `C[C@]1(O)CC[C@H](n2c(=O)c3ccccc3c3cnc(NCC4CCC4)nc32)CC1` [Compound 123, trans-3-((Cyclobutylmethyl)amino)-5-(4-hydroxy-4-methylcyclohexyl)pyrimido [4,5-c]isoquinolin-6(5H)-one], 7.12; as for `CCCCNc1ncc2c3ccc(N4CCN5CCC[C@@H]5C4)cc3c(=O)n([C@H]3CC[C@H](O)CC3)c2n1` [Compound 76, trans-3-(Butylamino)-8-((R)-hexahydropyrrolo[1,2-a]pyrazin-2(1H)-yl)-5-(4-hydroxycyclohexyl)pyrimido [4,5-c]isoquinolin-6(5H)-one], 7.94. For the compound `CC(C)CNc1ncc2c3ccc(CN4CCN(C)CC4)cc3c(=O)n([C@H]3CC[C@H](O)CC3)c2n1` [Compound 130, trans-5-(4-hydroxycyclohexyl)-3-(isobutylamino)-8-((4-methylpiperazin-1-yl)methyl)pyrimido[4,5-c]isoquinolin-6(5H)-one], the pEC50 is 7.29. Take `CC(C)CNc1ncc2c3ccc(CN4CCN(C)CC4)cc3c(=O)n([C@H]3CC[C@H](O)CC3)c2n1` [Compound 56, trans-5-(4-Hydroxycyclohexyl)-3-(isobutylamino)-8-((4-methylpiperazin-1-yl)methyl)pyrimido[4,5-c]isoquinolin-6(5H)-one]: the pEC50 is 7.29. As for `CN1CCN(Cc2ccc3c(c2)c(=O)n([C@H]2CC[C@](C)(O)CC2)c2nc(NCC4CCC4)ncc32)CC1` [Compound 34, trans-3-((Cyclobutylmethyl)amino)-5-(4-hydroxy-4-methylcyclohexyl)-8-((4-methylpiperazin-1-yl)methyl)pyrimido[4,5-c]isoquinolin-6(5H)-one], the figure is 8.13.
